Results published in paper PMC8620390, “New Multi-Targeted Antiproliferative Agents: Design and Synthesis of IC261-Based Oxindoles as Potential Tubulin, CK1 and EGFR Inhibitors” (Pharmaceuticals, 2021).
Several values for one entry are separate records, joined by “and”; a condition that tells them apart may be missing. Identical values can stand only once. Marks after values point to notes of the source that are not given here.

Tests used:
Type in all cases: cell-based, human
Bcl-2 = Bcl-2 expression level in COLO-205 (qRT-PCR)
Description: (§1) qRT-PCR was used to assess the […] expression of Bax and Bcl-2. The High Pure RNA Isolation Kit (RNeasy extraction kit, up to 1 × 10^7 cells) was used to isolate total RNA from COLO-205 cells according to the manufacturer's instructions. A Transcriptor First Strand c-DNA Synthesis Kit was used to produce c-DNA from RNA according to the manufacturer's instructions; 10 μL total RNA was used for amplification Specific primers for Bax, Bcl-2, and P53 were used in PCR experiments. A LightCycler 480 PCR Master Mix was used to set up amplification reactions with a reaction volume of 20 uL. TaqMan probes and PCR primers were created and tuned. PCR Primer sequences were as following (Bax [NT], Bax [NT]. Bcl-2 [NT], and Bcl-2 […] dissociation assay was performed to evaluate any problem related to primer unspecific annealing or any secondary structure formation. Data were analyzed using SDS analysis software.

Bax = Bax expression level in COLO-205 (qRT-PCR); conditions: COLO-205, 4b 2.34 μM, vs DMSO-treated control
Description: as §1

COLO-205 [1] = experiment: Cell cycle analysis, DNA flow cytometry (PI)
Description: COLO-205 Cells were placed in a 6-well plate at 1 × 10^5 concentration of cells/well then incubated for 24 h. COLO-205 Cells were treated with compound 4b (2.34 μM) for 24 h. Cells were then collected and fixed for 12 h using ice cold 70% ethanol at 4 °C. Ethanol was then removed and cells were washed with cold phosphate buffer saline (PBS, 0.5 mL) and incubated for 30 min at 37 °C. The cells were stained for 30 min with propidium iodide in the dark. A flow cytometer was used to detect DNA content.

COLO-205 [2] = experiment: Annexin V-FITC/PI apoptosis assay
Description: COLO-205 Cells were placed in a 6-well plate at 1 × 10^5 concentration of cells/well then incubated for 24 h. COLO-205 Cells were treated with compound 4b (2.34 μM) for 24 h. The cells were then harvested, washed with PBS and stained with Annexin V-FITC and PI in binding buffer ([…] at pH 7.4) for 15 min at room temperature in the dark then analyzed by the flow cytometer.

[3] = COLO-205, 4b 2.34 μM, 24 h, annexin V-FITC

SMILES: COc1cc(OC)c(/C=C2/C(=O)Nc3cc(Cl)ccc32)c(OC)c1 [Compound 4b, (E)-6-chloro-3-(2,4,6-trimethoxybenzylidene)indolin-2-one]
- Bcl-2 level, fold change (Bcl-2; COLO-205, 4b 2.34 μM, vs control): 0.242 fold and 0.24 fold
- Bcl-2 protein level down-regulation, fold lower than untreated cells (Bcl-2; COLO-205, vs untreated COLO cells): 4.16 fold
- Bax expression level, fold change (Bax): 5.104 fold and 5.10 fold
- DNA content %G0-G1 (COLO-205 [1]; COLO-205, 4b 2.34 μM, 24 h): 47.15%
- DNA content %G2/M (COLO-205 [1]; COLO-205, 4b 2.34 μM, 24 h): 2.94 * %
- DNA content %Pre-G1 (COLO-205 [1]; COLO-205, 4b 2.34 μM, 24 h): 41.28% and 41.28 * %
- DNA content %S (COLO-205 [1]; COLO-205, 4b 2.34 μM, 24 h): 49.91%
- increase in cells at pre-G1 phase, fold (COLO-205 [1]; COLO-205, vs untreated control): 16.99 fold
- Apoptosis Early (COLO-205 [2]; [3]): 2.61%
- Apoptosis Late (COLO-205 [2]; [3]): 21.31%
- Apoptosis Total (COLO-205 [2]; [3]): 41.28%
- Necrosis (COLO-205 [2]; COLO-205, 4b 2.34 μM, 24 h, annexin V-FITC/PI): 17.36%
- overall effect (cytotoxic vs cytostatic) (COLO-205 [2]; COLO-205, annexin V/PI): cytotoxic, rather than cytostatic
- early and late apoptosis, times compared to the control (COLO-205 [2]; COLO-205, vs DMSO control): 27.81 times
- necrosis, times compared to the control (COLO-205 [2]; COLO-205, vs DMSO control): 11.05 times
